From patent US20080234333A1, “Novel Hydroxamic Acid Derivative as Peptide Deformylase Inhibitor and Manufacturing Method Thereof” (priority 2005, published 2008)
≈ marks a conversion by molar mass, not a printed value. Read-outs that look alike come from different tables or passages of the source.

Assays:
[1] = Acute toxicity study in mice; conditions: male, mouse, in vivo, 4000 mg/kg; ICR mice (♂, 4 weeks), oral 4,000 mg/kg dose, observed for 14 days
Method: The acute toxicity of the compounds of Example 7, 13, 18 and 47 were tested using several groups of ICR mice each of 6 mice.

[2] = test system: Streptococcus pyogenes; assay: MIC, microdilution method in 96-well plates; assay type: cell-based; conditions: read-out: MIC Streptococcus pyogenes
Method: (§1) Minimum inhibitory concentrations (MICs) were determined using the microdilution method in 96-well format plates. Each of the compounds of Examples was dissolved in dimethyl sulfoxide to a concentration of 2 mg/mL and stored at 4° C. until used. They were diluted in Mueller-Hinton Broth (MHB) and used for MIC determination. The range of concentrations tested was […] final concentration using a two-fold dilution system. Plates were incubated at 37° C. and MIC were recorded after 24 hours of incubation for bacteria.
(§2) Linezolid and vancomycin were used as standard antibiotics, respectively.

[3] = test system: Vancomycin-resistant Enterococcus faecalis; assay: MIC, microdilution method in 96-well plates; assay type: cell-based; conditions: read-out: MIC Vancomycin-resistant Enterococcus faecalis
Method: as §1, §2

[4] = test system: Methicillin-resistant Staphylococcus aureus; assay: MIC, microdilution method in 96-well plates; assay type: cell-based; conditions: read-out: MIC Methicillin-resistant Staphylococcus aureus
Method: as §1, §2

[5] = test system: Streptococcus agalactiae; assay: MIC, microdilution method in 96-well plates; assay type: cell-based; conditions: read-out: MIC Streptococcus agalactiae
Method: as §1, §2

[6] = test system: Streptococcus pneumoniae; assay: MIC, microdilution method in 96-well plates; assay type: cell-based; conditions: read-out: MIC Streptococcus pneumoniae
Method: as §1, §2

[7] = Mueller-Hinton Broth, 37° C., 24 hours of incubation

Row | Compound | MIC [2, 7] [µg/mL] | MIC [3, 7] [µg/mL] | MIC [4, 7] [µg/mL] | MIC [5, 7] [µg/mL] | MIC [6, 7] [µg/mL] | LD50 at 14 days [1] [mg/kg] | MIC ([2]; 24 h) [µg/mL] | MIC ([3]; 24 h) [µg/mL] | MIC ([4]; 24 h) [µg/mL] | MIC ([5]; 24 h) [µg/mL] | MIC ([6]; 24 h) [µg/mL]
1 | CC(C)C[C@H](CC(=O)NO)C(=O)N[C@H](C(=O)N1CCC(NC(=O)Cc2ccccc2)CC1)C(C)(C)C [Example 7, (R)-N^1-[(S)-2,2-Dimethyl-1-(4-phenylacetylamino-piperidine-1-carbonyl)-propyl]-N^4-hydroxy-2-isobutyl-succinamide] |  |  |  |  |  | > 4000 |  |  |  |  | 
2 | CC(C)(C)[C@H](NC(=O)[C@@H](CC(=O)NO)CC1CCCC1)C(=O)N1CCC(NC(=O)c2ccc(C(F)(F)F)cc2)CC1 [Example 13, (R)-2-Cyclopentylmethyl-N^1-{(S)-2,2-dimethyl-1-[4-(4-trifluoromethyl-benzoylamino)-piperidine-1-carbonyl]-propyl}-N^4-hydroxy-succinamide] | 0.4 (≈ 0.687 µM) | 6.3 (≈ 10.8 µM) | 12.5 (≈ 21.5 µM) | 0.2 (≈ 0.343 µM) | 3.1 (≈ 5.32 µM) | > 4000 |  |  |  |  | 
3 | CCCC[C@H](CC(=O)NO)C(=O)N[C@H](C(=O)N1CCC(NC(=O)c2ccc(C)cc2)CC1)C(C)(C)C [Example 18, (R)-2-Butyl-N^1-{(S)-2,2-dimethyl-1-[4-(4-methyl-benzoylamino)-piperidine-1-carbonyl]-propyl}-N^4-hydroxy-succinamide] |  |  |  |  |  | > 4000 |  |  |  |  | 
4 | Cc1ccc(C(=O)NC2CCN(C(=O)[C@@H](NC(=O)[C@@H](CC(=O)NO)CC3CCCC3)C(C)(C)C)CC2)cc1 [Example 20, (R)-2-Cyclopentylmethyl-N^1-{(S)-2,2-dimethyl-1-[4-(4-methyl-benzoylamino)-piperidine-1-carbonyl]-propyl}-N^4-hydroxy-succinamide] | 0.4 (≈ 0.757 µM) | 12.5 (≈ 23.6 µM) | 25 (≈ 47.3 µM) | 0.4 (≈ 0.757 µM) | 0.8 (≈ 1.51 µM) |  |  |  |  |  | 
5 | CC(C)(C)[C@H](NC(=O)[C@H](CC1CCCC1)CN(O)C=O)C(=O)N1CCC(NC(=O)c2ccc(C#N)cc2)CC1 [Example 29, 4-Cyano-N-(1-{(S)-2-[(R)-2-cyclopentylmethyl-3-(formyl-hydroxy-amino)-propionylamino]-3,3-dimethyl-butyryl}-piperidin-4-yl)benzamide] | 0.1 (≈ 0.185 µM) | 3.1 (≈ 5.74 µM) | 3.1 (≈ 5.74 µM) | 0.1 (≈ 0.185 µM) | 1.6 (≈ 2.96 µM) |  |  |  |  |  | 
6 | COc1ccc(C(=O)NC2CCN(C(=O)[C@@H](NC(=O)[C@H](CC3CCCC3)CN(O)C=O)C(C)(C)C)CC2)cc1 [Example 39, N-(1-{(S)-2-[(R)-2-Cyclopentylmethyl-3-(formyl-hydroxy-amino)-propionylamino]-3,3-dimethyl-butyryl}-piperidin-4-yl)-4-methoxy-benzamide] | 0.2 (≈ 0.367 µM) | 6.3 (≈ 11.6 µM) | 12.5 (≈ 22.9 µM) | 0.2 (≈ 0.367 µM) | 3.1 (≈ 5.69 µM) |  |  |  |  |  | 
7 | CC(C)(C)[C@H](NC(=O)[C@H](CC1CCCC1)CN(O)C=O)C(=O)N1CCC(NC(=O)c2cc(F)c(F)cc2F)CC1 [Example 44, N-(1-{(S)-2-[(R)-2-Cyclopentylmethyl-3-(formyl-hydroxy-amino)-propionylamino]-3,3-dimethyl-butyryl}-piperidin-4-yl)-2,4,5-trifluoro-benzamide] | 0.2 (≈ 0.352 µM) | 3.1 (≈ 5.45 µM) | 3.1 (≈ 5.45 µM) | 0.2 (≈ 0.352 µM) | 1.6 (≈ 2.81 µM) |  |  |  |  |  | 
8 | Cc1ccc(NC(=O)NC2CCN(C(=O)[C@@H](NC(=O)[C@H](CC3CCCC3)CN(O)C=O)C(C)(C)C)CC2)cc1 [Example 47, (R)-2-Cyclopentylmethyl-N-{(S)-2,2-dimethyl-1-[4-(3-p-tolyl-ureido)-piperidine-1-carbonyl]-propyl}-3-(formyl-hydroxy-amino)-propionamide] |  |  |  |  |  | > 4000 |  |  |  |  | 
9 | CN[C@H](CC(C)C)C(=O)N[C@H]1C(=O)N[C@@H](CC(N)=O)C(=O)N[C@H]2C(=O)N[C@H]3C(=O)N[C@H](C(=O)N[C@H](C(=O)O)c4cc(O)cc(O)c4-c4cc3ccc4O)[C@H](O)c3ccc(c(Cl)c3)Oc3cc2cc(c3O[C@@H]2O[C@H](CO)[C@@H](O)[C@H](O)[C@H]2O[C@H]2C[C@](C)(N)[C@H](O)[C@H](C)O2)Oc2ccc(cc2Cl)[C@H]1O [Vancomycin, reference compound] |  |  |  |  |  |  | 0.8 (≈ 0.552 µM) | > 100 | 3.1 (≈ 2.14 µM) | 1.6 (≈ 1.1 µM) | 0.8 (≈ 0.552 µM)

Now from value to compound, other results behind:

Row | MIC [2, 7] [µg/mL] | MIC [3, 7] [µg/mL] | MIC [4, 7] [µg/mL] | MIC [5, 7] [µg/mL] | MIC [6, 7] [µg/mL] | Compound | LD50 at 14 days [1] [mg/kg] | MIC ([2]; 24 h) [µg/mL] | MIC ([3]; 24 h) [µg/mL] | MIC ([4]; 24 h) [µg/mL] | MIC ([5]; 24 h) [µg/mL] | MIC ([6]; 24 h) [µg/mL]
10 | 1.6 (≈ 3.11 µM) | 25 (≈ 48.6 µM) | 12.5 (≈ 24.3 µM) | 1.6 (≈ 3.11 µM) | 6.3 (≈ 12.2 µM) | CC(C)(C)[C@H](NC(=O)[C@@H](CC(=O)NO)CC1CCCC1)C(=O)N1CCC(NC(=O)c2ccccc2)CC1 [Example 8, (R)-N^1-[(S)-1-(4-Benzoylamino-piperidine-1-carbonyl)-2,2-dimethyl-propyl]-2-cyclopentylmethyl-N^4-hydroxy-succinamide] |  |  |  |  |  | 
11 | 0.8 (≈ 1.51 µM) | 50 (≈ 94.6 µM) | 50 (≈ 94.6 µM) | 0.2 (≈ 0.378 µM) | 50 (≈ 94.6 µM) | CC(C)(C)[C@H](NC(=O)[C@@H](CC(=O)NO)CC1CCCC1)C(=O)N1CCC(NC(=O)Cc2ccccc2)CC1 [Example 10, (R)-2-Cyclopentylmethyl-N^1-[(S)-2,2-dimethyl-1-(4-phenylacetylamino-piperidine-1-carbonyl)-propyl]-N^4-hydroxy-succinamide] |  |  |  |  |  | 
12 | 0.2 (≈ 0.375 µM) | 6.3 (≈ 11.8 µM) | 6.3 (≈ 11.8 µM) | 0.2 (≈ 0.375 µM) | 6.3 (≈ 11.8 µM) | CC(C)(C)[C@H](NC(=O)[C@@H](CC(=O)NO)CC1CCCC1)C(=O)N1CCC(NC(=O)c2ccc(F)cc2)CC1 [Example 15, (R)-2-Cyclopentylmethyl-N^1-{(S)-1-[4-(4-fluoro-benzoylamino)-piperidine-1-carbonyl]-2,2-dimethyl-propyl}-N^4-hydroxy-succinamide] |  |  |  |  |  | 
13 | 0.4 (≈ 0.777 µM) | 6.3 (≈ 12.2 µM) | 12.5 (≈ 24.3 µM) | 0.1 (≈ 0.194 µM) | 6.3 (≈ 12.2 µM) | CC(C)(C)[C@H](NC(=O)[C@H](CC1CCCC1)CN(O)C=O)C(=O)N1CCC(NC(=O)c2ccccc2)CC1 [Example 25, N-(1-{(S)-2-[(R)-2-Cyclopentylmethyl-3-(formyl-hydroxy-amino)-propionylamino]-3,3dimethyl-butyryl}-piperidin-4-yl)-benzamide] |  |  |  |  |  | 
14 | 3.1 (≈ 5.32 µM) | 6.3 (≈ 10.8 µM) | 3.1 (≈ 5.32 µM) | 0.1 (≈ 0.172 µM) | 1.6 (≈ 2.75 µM) | CC(C)(C)[C@H](NC(=O)[C@H](CC1CCCC1)CN(O)C=O)C(=O)N1CCC(NC(=O)c2ccc(C(F)(F)F)cc2)CC1 [Example 28, N-(1-{(S)-2-[(R)-2-Cyclopentylmethyl-3-(formyl-hydroxy-amino)-propionylamino]-3,3-dimethyl-4-butyryl}-piperidin-4-yl)-4-trifluoromethyl-benzamide] |  |  |  |  |  | 
15 | 0.2 (≈ 0.375 µM) | 6.3 (≈ 11.8 µM) | 6.3 (≈ 11.8 µM) | 0.2 (≈ 0.375 µM) | 1.6 (≈ 3 µM) | CC(C)(C)[C@H](NC(=O)[C@H](CC1CCCC1)CN(O)C=O)C(=O)N1CCC(NC(=O)c2ccc(F)cc2)CC1 [Example 30, N-(1-{(S)-2-[(R)-2-Cyclopentylmethyl-3-(formyl-hydroxy-amino)-propionylamino]-3,3-dimethyl-butyryl}-piperidin-4-yl)-4-fluoro-benzamide] |  |  |  |  |  | 
16 | 3.1 (≈ 5.86 µM) | 3.1 (≈ 5.86 µM) | 6.3 (≈ 11.9 µM) | 0.1 (≈ 0.189 µM) | 1.6 (≈ 3.03 µM) | Cc1ccc(C(=O)NC2CCN(C(=O)[C@@H](NC(=O)[C@H](CC3CCCC3)CN(O)C=O)C(C)(C)C)CC2)cc1 [Example 38, N-(1-[(S)-2-[(R)-2-Cyclopentylmethyl-3-(formyl-hydroxy-amino)-propionylamino]-3,3-dimethyl-butyryl}-piperidin-4-yl)-4-methyl-benzamide] |  |  |  |  |  | 
17 | 0.4 (≈ 0.761 µM) | 3.1 (≈ 5.9 µM) | 6.3 (≈ 12 µM) | 0.4 (≈ 0.761 µM) | 1.6 (≈ 3.04 µM) | CC(C)[C@H](NC(=O)[C@H](CC1CCCC1)CN(O)C=O)C(=O)N1CCC(NC(=O)c2ccc(C#N)cc2)CC1 [Example 41, 4-Cyano-N-(1-{(S)-2-[(R)-2-cyclopentylmethyl-3-(formyl-hydroxy-amino)-propionylamino]-3-methyl-butyryl}-piperidin-4-yl)benzamide] |  |  |  |  |  | 
18 | 0.2 (≈ 0.335 µM) | 3.1 (≈ 5.19 µM) | 6.3 (≈ 10.5 µM) | 0.2 (≈ 0.335 µM) | 1.6 (≈ 2.68 µM) | CC(C)(C)[C@H](NC(=O)[C@H](CC1CCCC1)CN(O)C=O)C(=O)N1CCC(NC(=O)Nc2ccc(C(F)(F)F)cc2)CC1 [Example 48, (R)-2-Cyclopentylmethyl-N-((S)-2,2-dimethyl-1-{4-[3-(4-trifluoromethyl-phenyl)-ureido)-piperidine-1-carbonyl}-propyl)-3-(formyl-hydroxy-amino)-propionamide] |  |  |  |  |  | 
19 | 0.4 (≈ 0.646 µM) | 3.1 (≈ 5.01 µM) | 6.3 (≈ 10.2 µM) | 0.4 (≈ 0.646 µM) | 1.6 (≈ 2.59 µM) | CC(C)(C)[C@H](NC(=O)[C@H](CC1CCCC1)CN(O)C=O)C(=O)N1CCC(NS(=O)(=O)c2ccc(C(F)(F)F)cc2)CC1 [Example 50, (R)-2-Cyclopentylmethyl-N-{(S)-2,2-dimethyl-1-[4-(4-trifluoromethyl-benzenesulfonylamino)-piperidine-1-carbonyl]-propyl}-3-(formyl-hydroxy-amino)-propionamide] |  |  |  |  |  | 
20 | 0.8 (≈ 2.37 µM) | 0.8 (≈ 2.37 µM) | 1.6 (≈ 4.74 µM) | 1.6 (≈ 4.74 µM) | 0.8 (≈ 2.37 µM) | CC(=O)NC[C@H]1CN(c2ccc(N3CCOCC3)c(F)c2)C(=O)O1 [Linezolid, reference compound] |  |  |  |  |  | 
